According to patent publication US20010053774A1, “Non-steroidal ligands for the estrogen receptor” (GLAXO WELLCOME INC.., priority 1994, published 2001):
Like-named read-outs stand apart in the source and are kept apart here.

Columns and labels:
[1] = test system: Ishikawa human endometrioma cell line; assay: Ishikawa cell functional assay of estrogenic activity (alkaline phosphatase induction); assay type: cell-based; details: for EC50: Ishikawa-Var I cells, 2 days incubation, estrogen agonist activity, read-out: EC50 (concentration inducing 50% of maximal alkaline phosphatase activity); for Emax (maximal alkaline phosphatase activity) / Emax: percentage of the alkaline phosphatase activity induced by a saturating concentration of estradiol; for Emax: Ishikawa, read-out: Emax (maximal alkaline phosphatase activity); for agonist activity (Emax) in the Ishikawa cell functional assay (in words): comparison with tamoxifen or within the series
Method: Subconfluent Ishikawa-Var I cells were removed from maintenance growth conditions and resuspended in phenol red-free DMEM-F12 containing 5% charcoal stripped FBS and 2 mM glutamine at a concentration of 58,500 cells/mL. Cells were plated at a density of 13,000 cells/cm^2 and placed in an incubator (37° C., 5% CO2) for 3 days. Cells were harvested and resuspended in phenol red-free DMEM-F12 containing 1% charcoal stripped FBS, 2 mM glutamine, 100 Units/mL penicillin and 100 μg/mL streptomycin to a concentration of 83,000 cells/mL. Cells were seeded at a density of 8300 cells/well in 96 well plates and allowed to attach overnight. Appropriate drug treatments at 2× concentrations were added in 0.1 mL of medium containing 0.2% DMSO. Plates were incubated for 2 days, media was aspirated and plates washed once with 300 μL 0.9% sterile saline. Plates were frozen at −70° C. and then warmed to RT. The attached cells were assayed for alkaline phosphatase activity by addition of 200 μL of 5 mM p-nitrophenylphosphate in 1 M diethanolamine, pH 10.4, containing 0.1% (w/v) Triton X-100, incubation at 37° C. for 30 min and measurement of absorbance at 405 nm on a Molecular Devices ThermoMax plate reader.

[2] = test system: 21 day old female SD rats; assay: in-vivo anti-uterotrophic activity in immature rats (uterine weight/body weight); parameters: species or system rat; details: 10 μmol/kg by gavage for 3 days, compared with tamoxifen
Method: In order to evaluate the compounds set forth above for in-vivo anti-uterotrophic activity, groups of five 21 day old female SD rats (30-35 g) were weighed and the average weights recorded for each treatment group as illustrated in FIG. 1. Stock solutions (10×) of the triphenylethylene analogs in ethanol were diluted with 0.5% methyl cellulose and 10 μmol/kg was dosed by gavage to the animals. Estradiol was dissolved in sesame oil and 100 nmol/kg dosed by subcutaneous injection. Animals were dosed for 3 days and sacrificed on day 4 by CO2 asphyxiation. The body weights were obtained, uteri removed, blotted and weighed. Data is expressed as uterine weight/body weight±standard error. Solid bars represent data from animals dosed with test compound alone. Open bars represent data from animals dosed with test compounds 6h prior to a dose of estradiol.

[3] = test system: 90 day old estrogen deficient ovariectomized rats; assay: bone mineral density in ovariectomized rats (lumbar spine and tibia); assay type: in vivo, rat; details: 10 μmol/kg orally once a day for 28 days, versus sham-operated
Method: As an example of the functional profile of these compounds in bone, Compound No. 9 was evaluated in 90 day old estrogen deficient ovariectomized rats for their ability to inhibit loss of bone mineral density. Ninety day old SD rats were divided into groups of six. […] were surgically ovariectomized. Two days post-ovariectomy, animals were dosed by gavage with either 10 μmol/kg of Compound No. 9 in 0.5% methyl cellulose or vehicle once a day for 28 days. One group of aminals was sham-operated, and 2 days post-ovariectomy dosed with vehicle once a day for 28 days. At 0, 14 and 28 days, rats were anesthesized with isoflurane and placed in the supine position with their spines parallel to the long axis of the densitometer table. The lumbar spine was scanned using the pelvic bones as a landmark. […] The right tibia was analysed with subregional high resolution software, focusing on the 3-5 mm distal from the growth plate previously identified as a region of accelerated bone loss due to ovariectomy.
BMD was measured by dual-energy X-ray absorptiometry using a Hologic QDR-2000 bone densitometer using a regional high-resolution software package with default scan length, width, line spacing and point resolution of 2, 0.75, 0.01 and 0.005 in. respectively.

rat estrogen receptor = rat estrogen receptor (Rattus norvegicus, UniProt P06211); details: for receptor affinity in the receptor binding assay (in words): comparison within the amide analog series
Chain of rat estrogen receptor (P06211 whole entry): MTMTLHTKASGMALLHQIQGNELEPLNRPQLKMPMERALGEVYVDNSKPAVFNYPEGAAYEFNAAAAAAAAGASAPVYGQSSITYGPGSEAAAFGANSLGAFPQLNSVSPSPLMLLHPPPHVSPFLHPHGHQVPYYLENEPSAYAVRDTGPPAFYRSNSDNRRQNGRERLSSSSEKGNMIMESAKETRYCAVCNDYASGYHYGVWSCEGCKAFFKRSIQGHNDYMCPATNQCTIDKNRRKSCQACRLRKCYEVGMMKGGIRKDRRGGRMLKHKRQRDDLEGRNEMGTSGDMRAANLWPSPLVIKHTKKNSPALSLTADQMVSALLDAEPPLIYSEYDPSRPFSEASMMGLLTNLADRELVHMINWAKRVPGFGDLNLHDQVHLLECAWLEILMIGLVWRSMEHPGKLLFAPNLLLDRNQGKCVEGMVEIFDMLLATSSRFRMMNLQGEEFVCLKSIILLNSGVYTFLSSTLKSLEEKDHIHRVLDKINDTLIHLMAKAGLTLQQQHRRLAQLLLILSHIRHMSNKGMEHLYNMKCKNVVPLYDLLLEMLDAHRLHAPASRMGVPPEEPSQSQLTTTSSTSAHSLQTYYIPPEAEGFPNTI
Description: Those skilled in the art will appreciate that several acceptable varieties of rat estrogen receptor binding assays are known and available for initial screening of the compounds of the present invention with respect to their ability to bind to the appropriate receptor. Compounds were initially evaluated as set forth below in an rat estrogen receptor binding assay for the ability to inhibit the binding of [^3H]-estradiol.

| melting point [°C] | EC50 ([1]; Homo sapiens, 48 h) [nM] | Compound | Emax ([1]; Homo sapiens) [%] | further results |
| --- | --- | --- | --- | --- |
| 158 to 159 |  | CCC(=C(c1ccccc1)c1ccc(C=Cc2noc(C)n2)cc1)c1ccccc1 [Compound No. 18, 3-{2-[4-(1,2-Diphenyl-but-1-enyl)-phenyl]-vinyl}-5-methyl-[1,2,4]-oxadiazole] |  |  |
| 182 to 185 |  | CCC(=C(c1ccccc1)c1ccc(C=CC(N)=NO)cc1)c1ccccc1 [compound 17, 1-Amino-3-[4-(1,2-diphenyl-but-1-enyl)-phenyl]-prop-2-ene-1-one oxime] |  |  |
|  |  | CCC(=C(c1ccccc1)c1ccc(C=CC(=S)N(CC)CC)cc1)c1ccccc1 [compound 21, 3-[4-(1,2-Diphenyl-but-1-enyl)-phenyl]-N,N-diethyl thioacrylamide] |  | EC50 [1]: 6.9 nM; Emax (maximal alkaline phosphatase activity) [1]: 18.8 ± 2.6% |
|  | 0.01 | C[C@]12CC[C@@H]3c4ccc(O)cc4CC[C@H]3[C@@H]1CC[C@@H]2O [Estradiol, estradiol, reference compound] | 100 |  |
| 101 to 102 |  | CCC(=C(c1ccccc1)c1ccc(C=CC#N)cc1)c1ccccc1 [Compound No. 7, 3-[4-(1,2-Diphenyl-but-1-enyl)-phenyl]-acrylonitrile] |  |  |
|  | 58 | CCC(=C(c1ccccc1)c1ccc(C=CC(=O)O)cc1)c1ccccc1 [Compound No. 9, 3-[4-(1,2-Diphenyl-but-1-enyl)-phenyl]-acrylic acid] | 3.8 ± 0.9 | agonist activity (Emax) in the Ishikawa cell functional assay (in words) [1]: lowest residual agonist activity; residual agonist activity, uterine weight/body weight (FIG. 1) [2]: less residual agonist activity than tamoxifen; bone mineral density (BMD), lumbar spine and tibia (FIG. 2) [3]: full agonist activity |
|  |  | CCC(=C(c1ccccc1)c1ccc(C=CC(=O)N(CC)CCN(C)C)cc1)c1ccccc1 [compound 13, N-(2-Dimethylamino-ethyl)-3-[4-(1,2-diphenyl-but-1-enyl)-phenyl]-N-ethyl acrylamide] |  | EC50 [1]: 4.6 nM; Emax (maximal alkaline phosphatase activity) [1]: 16.5 ± 1.7% |
|  | 20 | CCC(=C(c1ccccc1)c1ccc(C=C(C)C(=O)N(CC)CC)cc1)c1ccccc1 [Compound No. 4, 3-[4-(1,2-Diphenyl-but-1-enyl)-phenyl]-N, N-diethyl-2-methyl-acrylamide] | 18.8 ± 2.3 |  |
| 109 to 111 | 7.3 | CCC(=C(c1ccccc1)c1ccc(C(C)=CC(=O)N(CC)CC)cc1)c1ccccc1 [Compound No. 5, 3-[4-(1,2-Diphenyl-but-1-enyl)-phenyl]-but-2-enoic acid diethylamide] | 15 ± 3 |  |
|  |  | CCC(=C(c1ccccc1)c1ccc(C=CC(=O)N(C2CCCCC2)C2CCCCC2)cc1)c1ccccc1 [Compound No. 12, N,N-Dicyclohexyl-3-[4-(1,2-diphenyl-but-1-enyl)-phenyl] acrylamide] |  | receptor affinity in the receptor binding assay (in words) (rat estrogen receptor): reduced receptor affinity; EC50 [1]: 70 nM; Emax (maximal alkaline phosphatase activity) [1]: 19.4 ± 2.0% |
|  |  | CCC(=C(c1ccccc1)c1ccc(C=CC(=O)N(CC)CC)cc1)c1ccccc1 [Compound No. 1, 3-[4-(1,2-Diphenyl-but-1-enyl)-phenyl]-N,N-diethyl acrylamide] |  | receptor affinity in the receptor binding assay (in words) (rat estrogen receptor): highest affinity; estrogen receptor binding affinity relative to tamoxifen (rat estrogen receptor; higher affinity than tamoxifen): approx. 10 fold; EC50 [1]: 2.3 nM; agonist activity (Emax) in the Ishikawa cell functional assay (in words) [1]: significantly lower agonist activity (Emax) than tamoxifen; Emax (maximal alkaline phosphatase activity) [1]: 11.9 ± 1.2% |
|  |  | CCNC(=O)C=Cc1ccc(C(=C(CC)c2ccccc2)c2ccccc2)cc1 [compound 16, 3-[4-(1,2-Diphenyl-but-1-enyl)-phenyl]-N-ethyl acrylamide] |  | EC50 [1]: 18 nM; Emax (maximal alkaline phosphatase activity) [1]: 11.8 ± 1.9% |
|  | 33 | CC/C(=C(\c1ccccc1)c1ccc(OCCN(C)C)cc1)c1ccccc1 [Tamoxifen, (Z)-1,2-diphenyl-1-[4-[2-(dimethylamino)ethoxy]phenyl]-1-butene, reference compound] | 16.5 ± 0.6 |  |
| 132 to 135 | 11 | CCC(=C(c1ccccc1)c1ccc(C=CC(=O)NCCCOC)cc1)c1ccccc1 [compound 11, 3-[4-(1,2-Diphenyl-but-1-enyl)-phenyl]-N-(3-methoxy-propyl)-acrylamide] | 14 ± 1.5 |  |
| 144 to 146 | 17 | CCC(=C(c1ccccc1)c1ccc(C=CC(=O)NCCCO)cc1)c1ccccc1 [compound 22, 3-[4-(1,2-Diphenyl-but-1-enyl)-phenyl]-N-(3-hydroxy-propyl)-acrylamide] | 15.3 ± 2.4 |  |
|  |  | CCCCCCCCN(C)C(=O)C=Cc1ccc(C(=C(CC)c2ccccc2)c2ccccc2)cc1 [compound 14, 3-[4-(1,2-Diphenyl-but-1-enyl)-phenyl]-N-methyl-N-octyl acrylamide] |  | EC50 [1]: 12 nM; agonist activity (Emax) in the Ishikawa cell functional assay (in words) [1]: lowest residual agonist activity; Emax (maximal alkaline phosphatase activity) [1]: 6.3 ± 1.2% |
| 133 to 135 |  | CCC(=C(c1ccccc1)c1ccc(C=CC(=O)OC)cc1)c1ccccc1 [Compound No. 6, 3-[4-(1,2-Diphenyl-but-1-enyl)-phenyl]-acrylic acid methyl ester] |  |  |
| 80 to 83 |  | CCC(=C(c1ccccc1)c1ccc(C=CCO)cc1)c1ccccc1 [Compound No. 19, 3-[4-(1,2-Diphenyl-but-1-enyl)-phenyl]-prop-2-ene-1-ol] |  |  |
| 139 to 140 |  | CCC(=C(c1ccccc1)c1ccc(C=CC(=O)OC(C)(C)C)cc1)c1ccccc1 [Compound No. 8, 3-[4-(1,2-Diphenyl-but-1-enyl)-phenyl]-acrylic acid tert-butyl ester] |  |  |
| 150 to 154 | 6.9 | CCC(=C(c1ccccc1)c1ccc(C=CC(=O)N2CCOCC2)cc1)c1ccccc1 [compound 10, 3-[4-(1,2-Diphenyl-but-1-enyl)-phenyl]-1-morpholin-4-yl-prop-2-en-1-one] | 14.8 ± 2.4 |  |
| 200 to 202 | 8.6 | CCC(=C(c1ccccc1)c1ccc(C=CC(N)=O)cc1)c1ccccc1 [compound 15, 3-[4-(1,2-Diphenyl-but-1-enyl)-phenyl]acrylamide] | 8.9 ± 1.4 | agonist activity (Emax) in the Ishikawa cell functional assay (in words) [1]: lowest residual agonist activity; residual agonist activity, uterine weight/body weight (FIG. 1) [2]: less residual agonist activity than tamoxifen |
| 42 to 44 | 4.9 | CCC(=C(c1ccccc1)c1ccc(C2CC2C(=O)N(CC)CC)cc1)c1ccccc1 (stereo not drawn) [compound 3, 2-[4-(1,2-Diphenyl-but-1-enyl)-phenyl]cyclopropanecarboxylic acid diethylamide] | 15.7 ± 1.8 |  |
